Results as given in patent EP1129354B1, “A METHOD FOR DETERMINING A MIMOTOPE SEQUENCE” (PEPSCAN SYSTEMS B.V., priority 1998, dated 2000).

test system: antibody; experiment: Pepscan ELISA, replacement analyses (Example-2); assay type: binding; settings: value is the antibody concentration, antibody binds a non-linear epitope

Substance	activity at
ANAPSAIGAFGL	activity at ≥ 5.0 µg/ml
ANWPSAIGAFGL	activity at ≥ 10.0 µg/ml
ANWSSAIGAFGL	activity at ≥ 5.0 µg/ml
ANWSSAIGAFKL	activity at ≥ 5.0 µg/ml
AWWPSAIGAFGL	activity at ≥ 5.0 µg/ml
HNWPSAIGAFGL	activity at ≥ 5.0 µg/ml
HWASSAIGAFKL	activity at ≥ 1.0 µg/ml
HWASSAMGAFKL	activity at ≥ 0.5 µg/ml
HWGSSAIGAFKL	activity at ≥ 0.5 µg/ml
HYASSAIGAFKL	activity at ≥ 0.5 µg/ml
KWASSAIGAFKL	activity at ≥ 0.5 µg/ml
KYFSSAMGAFKL	activity at ≥ 0.05 µg/ml
KYFSSGMGAFKL	activity at ≥ 0.01 µg/ml
KYGSSAMGAFKL	activity at ≥ 0.1 µg/ml
KYGSSGMGAFKL	activity at ≥ 0.05 µg/ml

test system: antibody; experiment: Pepscan ELISA, lengthening and replacement analyses (Example-3); assay type: binding; settings: value is the antibody concentration
Source text: (§1) Lead peptides can also be derived from other type of libraries such as for example phage-display libraries.
(§2) In a replacement analysis the binding activity of complete series of substitutions analogs of lead peptides, in which each position is replaced by each of the other 19 natural L-amino acids, is investigated in detail. In addition, it is possible to use the 20 D-amino acids as well as other available non-natural amino acids. Substitutions that result in improved binding are combined into new sequences of building blocks. These new sequences are again tested in a 2nd replacement analysis. If necessary more rounds of replacement analyses are performed. After each round of a replacement analyses the antibody (or other soluble receptor) concentration can be lowered to obtain maximal binding activity (e.g. from 100 µg/ml to 0.01 µg/ml after 2 rounds of replacement-analyses, as shown in example-1).
(§3) Notes for the examples: • the 10 µg/ml, 1 µg/ml etc. denote the antibody concentration. • The line "improved position-01" etc. means that this change in amino acid (is underlined) improves binding activity in pepscan elisa at given antibody concentration. Positions that could not be improved are not mentioned (e.g. position-08 in first replacement-net of example-1, i.e. the original I at position 8 gives the highest activity).
In example-3, lead peptides were identified through phage-display. Adjacent cysteines/glycines were added to improve binding activity. After obtained activity multiple replacement analyses were done as discussed in example-1.

Substance	activity at
CSDTHKGCG	activity at ≥ 5.0 µg/ml
CSDTRKGC	activity at ≥ 10.0 µg/ml
CSDTRYGCG	activity at ≥ 5.0 µg/ml
CSETRKGCG	activity at ≥ 5.0 µg/ml
CTDTRKGCG	activity at ≥ 5.0 µg/ml
CTETHFGCG	activity at ≥ 0.5 µg/ml
CTETHYGCG	activity at ≥ 1.0 µg/ml
CTETKYGCG	activity at ≥ 0.5 µg/ml
CYETHYGCG	activity at ≥ 0.5 µg/ml
CYETKFGCG	activity at ≥ 0.1 µg/ml
CYETKFGNG	activity at ≥ 0.05 µg/ml
DYETKFGCG	activity at ≥ 0.05 µg/ml
DYETKFGNG	activity at ≥ 0.01 µg/ml

test system: Monoclonal antibody 26/9; experiment: PEPSCAN-based ELISA, binding of peptides to antibody 26/9 (Example-1); settings: value is the antibody 26/9 concentration at which the peptide shows binding activity in pepscan elisa

Substance	activity at
CGCAAENIRCYA	activity at ≥ 10.0 µg/ml
CGCAAMDIRCYA	activity at ≥ 10.0 µg/ml
CGCAAMNIRNYA	activity at ≥ 10.0 µg/ml
CGCAANINIMCYA	activity at ≥ 10.0 µg/ml
CGCAEMNIRCYA	activity at ≥ 10.0 µg/ml
CGCEAMMIRCYA	activity at ≥ 10.0 µg/ml
CGDAAMNIRCYA	activity at ≥ 10.0 µg/ml
CMCAAMNIRCYA	activity at ≥ 10.0 µg/ml
EGCAAMNIRCYA	activity at ≥ 10.0 µg/ml
EMDEEEDIMDYA	activity at ≥ 0.1 µg/ml
EMDEEEDIPNYA	activity at ≥ 0.1 µg/ml
EMDEEEDVMNYA	activity at ≥ 0.1 µg/ml

test system: antibody; experiment: Pepscan ELISA, replacement analyses of consensus sequence (Example-5); assay type: binding; settings: value is the antibody concentration
Description: All 4550 dodecapeptides were ranked according to their binding activity. According to their ranking consensus sequences and motifs are identified. Initial methods of lead optimization that only use the sequence of the top 50 molecules have been described in Slootstra et al.(1995b; 1997). The present method uses all 4550 sequences. Firstly, the frequency and/or distribution of single amino acids and the dipeptide motifs OO, dipeptide motifs OXO and dipeptide motifs OXXO is determined using Microsoft Excel 4.0 (O, one of the 20 natural L-amino acids; X, any residue). Secondly, properties of the amino acids (hydrophobicity, charge etc.) are included in the analysis. […] This is done by substitution of building blocks that inhibit activity and include building blocks that improve binding activity.
as §2, §3
In example-5, a set of similar lead peptides were used to identify a consensus sequence. The consensus sequences were identified as discussed in materials and method. This sequence was used in the replacement analyses. ALIGNMENT OF LEAD PEPTIDES: • QNNMKLFRGCVP • RGIKWNEMTDQW • KLQQNPTFYPPV • TNNCKEFAGIVP • RGILTNIMKDQW • IVQNNPKFFRGA

Substance	activity at
ILQNNMKDFRG	activity at ≥ 1.0 µg/ml
ILQNNMKDWRG	activity at ≥ 0.5 µg/ml
ILQNNMPDFRG	activity at ≥ 0.5 µg/ml
ILTNNMGDWRG	activity at ≥ 0.05 µg/ml
ILTNNMGDWYG	activity at ≥ 0.01 µg/ml
ILTNNMKDFRG	activity at ≥ 0.5 µg/ml
ILTNNMPDWRG	activity at ≥ 0.1 µg/ml
ILTNNMPDWYG	activity at ≥ 0.05 µg/ml

test system: antibody; experiment: Pepscan ELISA, replacement analyses of three leads and consensus (Example-6); assay type: binding; settings: value is the antibody concentration
Source text: as §1, §2, §3
In example-6, different lead peptides were used to identify a consensus sequence. Each lead peptide was used in multiple replacement analyses (two rounds).

Substance	activity at
ANAPSA	: activity at ≥ 5.0 µg/ml
ANWPSA	: activity at ≥ 10.0 µg/ml
ANWSSA	: activity at ≥ 5.0 µg/ml
AWWPSA	: activity at ≥ 5.0 µg/ml
HNWPSA	: activity at ≥ 5.0 µg/ml
HWASPA	: activity at ≥ 0.5 µg/ml
KLATRW	: activity at ≥ 5.0 µg/ml
KLITRW	: activity at ≥ 10.0 µg/ml
KLITRY	: activity at ≥ 5.0 µg/ml
KSITRW	: activity at ≥ 5.0 µg/ml
NICHWA	: activity at ≥ 1.0 µg/ml
NICSWS	: activity at ≥ 5.0 µg/ml
NVCHWA	: activity at ≥0.5 µg/ml
NVCHWS	: activity at ≥ 5.0 µg/ml
NVCSWA	: activity at ≥ 5.0 µg/ml
NVCSWS	: activity at ≥ 10.0 µg/ml
SLITRW	: activity at ≥ 5.0 µg/ml
SSATRY	: activity at ≥ 1.0 µg/ml
YICHWA	: activity at ≥0.5 µg/ml
YVCHWA	: activity at ≥ 0.1 µg/ml
YVCHWASSATRY	activity at 0.01 µg/ml

test system: antibody; experiment: Pepscan ELISA, replacement analyses and lengthening (Example-4); assay type: binding; settings: value is the antibody concentration
Source text: In addition to random minipepscan libraries mimotopes can also be identified from standard pepscan libraries. These libraries contain all overlapping 12-mers (or shorter/longer) covering the linear sequence of a known protein (Slootstra et al., 1995a).
as §2, §3
In example-4, a lead peptide was identified through standard pepscan analysis, i.e. the antibody was tested on all overlapping 12-mers covering the linear sequence of the protein. The following two rounds of replacement analyses were done as discussed in example-1. In addition, the mimotope was lengthened to the left and right (3 amino acids, this can be further lengthened) through additional replacement analyses.

Substance	activity at
AIMIKLILVNFR	activity at ≥ 5.0 µg/ml
APPIKLIRVNYR	activity at ≥ 0.5 µg/ml
AVMIKLILVNFR	activity at ≥ 5.0 µg/ml
AVMIKLILVNYR	activity at ≥ 5.0 µg/ml
AVMIKLIRVNFR	activity at ≥ 5.0 µg/ml
AVPIKLILVNFR	activity at ≥ 5.0 µg/ml
IKLIRVNYRCEN [combination impr., replacement analysis-IV]	activity at ≥ 0.1 µg/ml
IKLIRVNYRCQP	activity at ≥ 0.5 µg/ml
IKLIRVNYRMEP	activity at ≥ 0.5 µg/ml
IKLIRVNYRMQN	activity at ≥ 0.5 µg/ml
IKLIRVNYRMQP [lengthened right]	activity at ≥ 1.0 µg/ml
KIWYPPIKLIRV	activity at ≥ 0.5 µg/ml
KIYYPPIKLIRV [lengthened left]	activity at ≥ 1.0 µg/ml
KIYYPPISLIRV	activity at ≥ 0.5 µg/ml
KPYYPPIKLIRV	activity at ≥ 0.5 µg/ml
RIYYPPIKLIRV	activity at ≥ 0.5 µg/ml
RPWYPPISLIRV [combination impr., replacement analysis-III]	activity at ≥ 0.1 µg/ml
RPWYPPISLIRVNYRCEN [combination total, 18-mer mimotope]	activity at ≥ 0.01 µg/ml
RVMIKLILVNFR	activity at ≥ 10.0 µg/ml
YIPIKLIRVNYR	activity at ≥ 0.5 µg/ml
YPPIKLIRVNYR	activity at ≥ 0.1 µg/ml
